Converted amounts (≈) assume the structure as drawn. “And” between values parts separate entries of the source, which are not always exact repeats. Equal values may be shown once.
Key:
E. coli ∆tolC JW5503-1 = assay: MIC, E. coli ∆tolC; type: cell-based; conditions: Escherichia coli, read-out: MIC tolC
Experimental: (§1) The inoculum used for all the experiments is derived from a single seed lot that is maintained as glycerol stocks at −80 °C and are sub cultured on LB plate for isolated colonies. Single colony of each strain is grown in M9 medium. All test compound stocks and dilutions are prepared in DMSO. Serial two-fold dilutions of compounds are prepared separately, with the concentrations ranging from 2 mg/mL to 0.015 mg/mL. To 150 µl (3–7 × 10^5 CFU/ml) of bacterial culture in 96 well microtitre plates, 3 μL compound from each of the dilutions is added to respective wells to obtain final concentrations ranging from 40 µg/mL to 0.3 µg/mL of the test compounds. Media control, culture control and appropriate reference drug controls are included. […] Growth is monitored by checking absorbance at 600 nm (A600). […] The samples from MIC and above concentrations are plated for MBC (Minimum Bactericidal Concentration). The samples are diluted 1:10 and plated on LB agar plates. […] The killing kinetics is determined by enumerating survivors at various time points following compound exposure. E. coli cells (~10^7 CFU/ml; A600 of 0.1) are treated with various concentrations (40 µg/mL to 0.3 µg/mL) of compounds in a 96-well microtitre plate. At various time intervals (0 to 8 h), 30 μl volumes of treated cultures are serially diluted and plated on LB agar plates. […] Data is expressed as the log10 CFU for each drug treatment.

E. coli ∆nfsA = assay: microbe, parasite or virus in culture; type: cell-based; conditions: Escherichia coli, read-out: MIC ∆nfsA
Experimental: (§2) To assess the biological relevance of the interacting protein and establish the link between nitroreductases to the antibacterial activity of NTC compounds, single (ΔnfsA or ΔnfsB) and double knockouts (ΔnfsA & ΔnfsB) of nitroreductases were generated by phage transduction using strains from the Keio collection.
as §1

E. coli ∆nfsA + ∆nfsB = assay: microbe, parasite or virus in culture; type: cell-based; conditions: for MIC: Escherichia coli, read-out: MIC ∆nfsA + ∆nfsB; for antibacterial activity in double knockout (in words): ΔnfsA and ΔnfsB double knockout strain
Experimental: as §2, §1

AcrB = biological target: T1, AcrB (Escherichia coli, UniProt P31224); assay: Thermal shift assay with CPM dye; parameters: species or system E. coli; conditions: AcrB vs apo-protein; > 1°C implies binding
T1 construct: Full length acrB gene was amplified from E. coli; BW25113; His-tag (C); made in house; host or cells: E. coli C43(DE3), plasmid pET21a
Experimental: AcrB overexpression protocol is adopted from Du. et al.[31]. Full length acrB gene was amplified from E. coli. BW25113 using Forward Primer 5′-[…]-3′ Reverse Primer 5′-[…]-3′ and cloned into the plasmid pET21a. The resultant plasmid that would express AcrB with a C-terminal His-tag is transformed into E. coli strain C43(DE3). The cells are induced on reaching A600 = 0.6 and transferred to 18 °C. The culture is harvested by centrifugation and re-suspended in Buffer A (100 mM Sodium Phosphate, 100 mM NaCl, 10 mM Imidazole, pH = 7.4, 100 µg/ml protease inhibitor cocktail from Roche and 5 U/ml DNase I and 5 mg/ml lysozyme). The cells are lysed at 15000 psi using Emulsiflex and centrifuged at 8000 g for removing cell debris. The membrane is isolated by centrifuging the resultant supernatant at 125000 g (see Coomassie stained SDS-PAGE of the purified protein Figure S9). Membrane solubilisation is done using Buffer A and 1.5% DDM (n-Dodecyl-β-D-Maltoside). Ni-NTA chromatography is used to purify the His-tagged protein and eluted in Buffer A with 300 mM Imidazole and 1.5% DDM.
The assay is performed according to protocols established elsewhere. CPM (N- [4-(7-diethylamino-4-methyl-3-coumarinyl) phenyl] maleimide) is a thiol specific fluorochrome (Excitation 387 nm, Emission 463 nm) and is non-fluorescent in an unbound state. The proteins, on thermal unfolding exposes cysteines allowing the CPM to bind and fluoresce. […]. The thermal denaturation is performed in a fluorimeter that is heated from 25 to 90 °C at a ramp rate of 1 °C/min. The Tm is calculated by analysing the melting profiles using Boltzmann Sigmoid function (GraphPad Prism) and ∆Tm is calculated by measuring the difference between the Tm of inhibitor bound protein and the apo-protein.

T1 sequence (P31224 whole entry): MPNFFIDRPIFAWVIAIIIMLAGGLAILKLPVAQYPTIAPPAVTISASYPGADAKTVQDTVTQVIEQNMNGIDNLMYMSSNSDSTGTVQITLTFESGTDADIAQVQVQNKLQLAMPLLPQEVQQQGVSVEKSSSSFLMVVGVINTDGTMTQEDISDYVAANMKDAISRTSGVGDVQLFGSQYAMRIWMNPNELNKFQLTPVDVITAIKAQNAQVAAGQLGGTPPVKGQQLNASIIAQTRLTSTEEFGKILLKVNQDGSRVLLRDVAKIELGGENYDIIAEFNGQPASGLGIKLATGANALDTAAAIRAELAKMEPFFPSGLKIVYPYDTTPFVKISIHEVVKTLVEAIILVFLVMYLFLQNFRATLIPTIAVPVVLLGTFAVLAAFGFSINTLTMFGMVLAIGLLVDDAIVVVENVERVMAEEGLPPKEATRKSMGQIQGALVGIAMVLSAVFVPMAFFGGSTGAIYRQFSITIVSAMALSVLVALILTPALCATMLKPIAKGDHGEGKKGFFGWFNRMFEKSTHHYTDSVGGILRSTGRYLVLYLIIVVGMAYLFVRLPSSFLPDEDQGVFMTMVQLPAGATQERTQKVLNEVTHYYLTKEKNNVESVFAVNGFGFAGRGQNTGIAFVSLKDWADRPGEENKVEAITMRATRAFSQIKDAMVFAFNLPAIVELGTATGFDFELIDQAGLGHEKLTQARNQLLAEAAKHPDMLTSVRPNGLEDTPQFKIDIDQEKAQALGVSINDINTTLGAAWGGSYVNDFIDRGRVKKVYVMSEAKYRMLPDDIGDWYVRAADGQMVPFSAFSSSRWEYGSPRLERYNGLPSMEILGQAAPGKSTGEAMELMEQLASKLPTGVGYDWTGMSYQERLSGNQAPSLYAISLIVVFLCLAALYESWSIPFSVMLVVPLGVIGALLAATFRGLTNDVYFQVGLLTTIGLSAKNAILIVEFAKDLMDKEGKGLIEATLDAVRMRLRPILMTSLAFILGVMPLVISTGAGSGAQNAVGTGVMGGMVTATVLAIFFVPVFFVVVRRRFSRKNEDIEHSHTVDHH

SMILES | MIC (E. coli ∆tolC JW5503-1) | MIC (E. coli ∆nfsA) | MIC (E. coli ∆nfsA + ∆nfsB) | antibacterial activity in double knockout (in words) (E. coli ∆nfsA + ∆nfsB) | ∆Tm (AcrB) | fold elevation of MIC in the double knockout (E. coli ∆nfsA + ∆nfsB; ∆nfsA & ∆nfsB vs WT)
O=C(Nc1nc(-c2ccc(F)cc2F)cs1)c1ccc([N+](=O)[O-])s1 [compound 12, N-(4-(2,4-difluorophenyl)thiazol-2-yl)-5-nitrothiophene-2-carboxamide] | 0.15 µg/mL (≈ 0.408 µM) | 0.6 µg/mL (≈ 1.63 µM) | > 40 µg/mL | completely inactive | 0.68 °C | 
COc1cc(-c2csc(NC(=O)c3ccc([N+](=O)[O-])s3)n2)ccc1Cl [compound 20, N-(4-(4-chloro-3-methoxyphenyl)thiazol-2-yl)-5-nitrothiophene-2-carboxamide] | 0.3 µg/mL (≈ 0.758 µM) | 0.6 µg/mL (≈ 1.52 µM) | > 40 µg/mL | completely inactive | 1.86 °C and < 2 °C | 
O=C1CN(/N=C/c2ccc([N+](=O)[O-])o2)C(=O)N1 [nitrofurantoin, reference compound] |  | 5 µg/mL (≈ 21 µM) | 20 µg/mL |  |  | about 8 fold
O=C(Nc1nc(-c2ccc(F)cc2)cs1)c1ccc([N+](=O)[O-])s1 [compound 15, N-(4-(4-Fluorophenyl)thiazol-2-yl)-5-nitrothiophene-2-carboxamide] | 0.6 µg/mL (≈ 1.72 µM) | 0.6 µg/mL (≈ 1.72 µM) | > 40 µg/mL | completely inactive | 1.75 °C and < 2 °C | 
Cc1sc(NC(=O)c2ccc([N+](=O)[O-])s2)nc1-c1ccccc1 [compound 7, N-(5-Methyl-4-phenylthiazol-2-yl)-5-nitrothiophene-2-carboxamide] | 1.25 µg/mL (≈ 3.62 µM) | > 40 µg/mL | > 40 µg/mL |  | 4.13 °C | 

From publication PMC5940854, “Nitrothiophene carboxamides, a novel narrow spectrum antibacterial series: Mechanism of action and Efficacy” (Scientific Reports, 2018)
